{"source": "patent US6166067A", "about": "“Inhibitors of cholesterol-biosynthesis for reducing the cholesterol content of poultry eggs” (priority 1998, dated 2000)", "key": {"[1]": {"system": "total cholesterol in the yolk", "experiment": "Total cholesterol in egg yolk, laying-hen feeding trial (Example 1)", "format": "in vivo, laying hens (Lohmann Selected Leghorn)", "settings": "1000 mg/kg feed; 4 weeks", "procedure": "(§1) At the start of the trial, the laying hens (Lohmann Selected Leghorn) had been laying for 28 weeks. One treatment group consisted of 10 hens. The birds were initially fed with the various active ingredients for 4 weeks. The eggs were then collected for the analyses. 3 independent yolk pools were formed from 6 eggs in each case and were deep-frozen until analyzed. Total cholesterol and triglycerides in the yolk were analyzed by enzymatic methods. The analyses were carried out as stated in the handbook \"Veterinarmedizinische Laboruntersuchungen fur die Diagnose und Verlaufskontrolle\" (1985), 3rd edition, published by Boehringer Mannheim GmbH, Mannheim.\n(§2) For the cholesterol determination, the cholesterol esters were cleaved to cholesterol and fatty acid by the action of cholesterol esterase. Free cholesterol is converted by atmospheric oxygen with the involvement of cholesterol oxidase into Δ^4 -cholestenone and hydrogen peroxide. The resulting hydrogen peroxide forms with 4-aminophenazone and phenol through the catalytic action of peroxidase a red dye whose intensity of color is directly proportional to the cholesterol concentration and can be measured at 500 to 550 nm.\n(§3) The data were subjected to analysis of variance, and differences between means were ranged by the Duncan test."}, "[2]": {"system": "triglycerides in the yolk", "experiment": "Triglycerides in egg yolk, laying-hen feeding trial (Example 1)", "format": "in vivo, laying hens (Lohmann Selected Leghorn)", "settings": "4 weeks", "procedure": "as §1\n(§4) The triglycerides are determined enzymatically via their glycerol content. The triglycerides are cleaved enzymatically by the enzymes lipase and esterase. The resulting glycerol is phosphorylated by ATP to glycerol 3-phosphate in the reaction catalyzed by glycerol kinase GK.\nglycerol+ATP.revreaction.glycerol 3-phosphate+ADP\nThe resulting ADP is converted by pyruvate kinase (PK) with phosphoenolpyruvate (PEP) back into ATP, with formation of pyruvate. [drawing 6] Pyruvate is hydrogenated to lactate by lactate dehydrogenase (LDH) with NADH, the NADH being oxidized to NAD. [drawing 7]\nThe amount of NADH consumed during the reaction is equivalent to the amount of glycerol. NADH is the measured variable and can easily be determined from its absorption at Hg 366 nm, Hg 334 nm or 340 nm.\nas §3"}, "[3]": {"experiment": "Tocopherol and tocotrienol contents in yolk by HPLC (Example 1)", "format": "in vivo, laying hens (Lohmann Selected Leghorn)", "procedure": "as §1\n(§5) Tocopherols and tocotrienols in the yolk pools were determined by HPLC. To do this, the sample is hydrolyzed in aqueous alcoholic medium and extracted several times with diethyl ether. Quantification takes place by comparison with external standards.\nStationary phase: Spherisorb CN 5 μm, 250×4 mm\nMobile phase: n-Hexane with 0.25% i-propanol\nFluorescence detection: 292 nm (extinction) 326 nm (emission)"}, "HMG-CoA reductase": {"system": "HMG-CoA reductase", "settings": "broilers, supplementation; cited from earlier work"}, "plasma cholesterol [4]": {"system": "plasma cholesterol", "settings": "broilers, when cholesterol was fed at the same time; cited from earlier work"}, "cholesterol": {"system": "cholesterol", "settings": "high doses; cited from earlier work"}, "cholesterol in yolk": {"system": "cholesterol in yolk", "experiment": "Cholesterol in egg yolk, laying-hen feeding trial (Example 2)", "format": "in vivo, laying hens", "settings": "for Cholesterol, yolk: control 10.23", "source_text": "as §2\n(§6) Another feeding experiment was carried out in analogy to Example 1. In this case the intention was to test not only α- and δ-tocotrienol but also a tocotrienol precursor (4-oxo-γ-tocotrienol) and other terpenoids such as farnesyl acetate, perillyl alcohol, linalool and β-ionone, in laying hens.\n(§7) The trial protocol corresponds to that in Example 1 but with the following amendments:\n(§8) The number of birds comprised 8 hens per treatment.\n(§9) Triglyceride and cholesterol were determined in 4 independent yolk pools(each from 6 eggs) and plasma."}, "plasma cholesterol [5]": {"system": "plasma cholesterol", "experiment": "Cholesterol in plasma, laying-hen feeding trial (Example 2)", "format": "in vivo, laying hens", "settings": "500 mg/kg feed; control 125.3", "source_text": "as §2, §6, §7, §8\n(§10) 4 birds in each case from the control and the high dosages were sacrificed at the end of the trial. After taking blood to obtain plasma, the birds were completely exsanguinated. The liver was then removed and deep frozen until analyzed.\nas §9"}, "triglycerides in yolk": {"system": "triglycerides in yolk", "experiment": "Triglycerides in egg yolk, laying-hen feeding trial (Example 2)", "format": "in vivo, laying hens", "settings": "control 170.4", "procedure": "as §4, §6, §7, §8, §9"}, "plasma triglyceride": {"system": "plasma triglyceride", "experiment": "Triglycerides in plasma, laying-hen feeding trial (Example 2)", "format": "in vivo, laying hens", "settings": "500 mg/kg feed; control 2496", "procedure": "as §4, §6, §7, §8, §10, §9"}, "[6]": {"set-up": "species or system laying hens", "settings": "in vivo", "procedure": "as §5, §6, §7, §8\n(§11) In addition, α-, δ- and 4-oxo-γ-tocotrienol in yolk and liver (treatments 1 to 7) were determined."}, "[7]": {"set-up": "species or system laying hens", "settings": "in vivo", "procedure": "as §5, §6, §7, §10, §11", "remark": "listed apart in the source"}, "[8]": {"system": "cholesterol content of poultry eggs", "settings": "literature (Huggett et al.; Beyer and Jensen); cited from earlier work"}, "[9]": {"settings": "1000 mg/kg feed, after hydrolysis"}}}
{"smiles": "CC(=O)Oc1c(C)c(C)c2c(c1C)CCC(C)(CCCC(C)CCCC(C)CCCC(C)C)O2", "note": "(racemic) [vitamin E (all-rac-α-tocopheryl acetate), all-rac-α-tocopheryl acetate, reference compound]", "values": [{"measurement": "effect on cholesterol in the yolk", "setting": "[1]", "result": "no effect"}, {"measurement": "effect on triglycerides in the yolk", "setting": "[2]; 1000 mg/kg feed", "result": "no effect"}, {"measurement": "α-Tocopherol content in yolk", "setting": "[3]; [9]", "result": 23064, "unit": "μg/yolk"}, {"measurement": "α-Tocotrienol content in yolk", "setting": "[3]; [9]", "result": 227, "unit": "μg/yolk"}, {"measurement": "γ-Tocopherol content in yolk", "setting": "[3]; [9]", "result": 188, "unit": "μg/yolk"}, {"measurement": "δ-Tocopherol content in yolk", "setting": "[3]; [9]", "result": 36, "unit": "μg/yolk"}, {"measurement": "δ-Tocotrienol content in yolk", "setting": "[3]; [9]", "result": 0, "unit": "μg/yolk"}, {"measurement": "α-Tocopherol content in yolk", "setting": "[3]; 1000 mg/kg feed, control 0.48 mg", "result": 23, "unit": "mg"}, {"measurement": "effect on γ-tocopherol in the yolk", "setting": "[3]; high α-tocopherol dosage (1000 mg/kg feed)", "result": "reduction in γ-tocopherol in the yolk"}, {"measurement": "effect on HMG-CoA reductase", "setting": "HMG-CoA reductase", "result": "stimulation of HMG-CoA reductase"}, {"measurement": "change in plasma cholesterol", "setting": "plasma cholesterol [4]", "result": "increase in plasma cholesterol"}]}
{"smiles": "O=C(O)c1cccnc1", "note": "[nicotinic acid, reference compound]", "values": [{"measurement": "triglyceride content in the yolk", "setting": "[2]; both dosages (1500 and 15000 mg/kg feed)", "result": "significantly increased"}, {"measurement": "cholesterol-lowering effect", "setting": "cholesterol", "result": "cholesterol-lowering effect"}]}
{"smiles": "CC(C)=CCC/C(C)=C/CC/C(C)=C/CC[C@]1(C)CCc2c(C)c(O)c(C)c(C)c2O1", "note": "[α-Tocotrienol, α-tocotrienol]", "values": [{"measurement": "Cholesterol, yolk", "setting": "cholesterol in yolk; 50 mg/kg feed", "result": 9.85, "unit": "mg/g"}, {"measurement": "Cholesterol, yolk", "setting": "cholesterol in yolk; 500 mg/kg feed", "result": 9.45, "unit": "mg/g"}, {"measurement": "trend in yolk cholesterol content", "setting": "cholesterol in yolk; Example 2", "result": "trend toward reduced cholesterol contents in yolk"}, {"measurement": "Cholesterol, plasma", "setting": "plasma cholesterol [5]", "result": 130.3, "unit": "mg/dL"}, {"measurement": "Triglycerides, yolk", "setting": "triglycerides in yolk; 50 mg/kg feed", "result": 189.9, "unit": "mg/g"}, {"measurement": "Triglycerides, yolk", "setting": "triglycerides in yolk; 500 mg/kg feed", "result": 195.1, "unit": "mg/g"}, {"measurement": "Triglycerides, plasma", "setting": "plasma triglyceride", "result": 4195, "unit": "mg/dL"}, {"measurement": "effect on β-tocopherol", "setting": "[6]", "result": "effect on β-tocopherol only by the α-tocotrienol treatments"}, {"measurement": "increase for tocotrienols in yolk", "setting": "[6]", "result": "most pronounced increase"}, {"measurement": "detectability in the birds' livers", "setting": "[7]", "result": "detectable in the birds' livers"}, {"measurement": "effect on the cholesterol content in eggs", "setting": "[8]", "result": "no effect"}]}
